Assays:
Format in all cases: in vivo
[1] = tested on: Myzus persicae; assay: Myzus persicae (green peach aphid): feeding/contact activity; conditions: 144 h, application rate 200 ppm, aphid population of mixed ages, 6 days after infestation, read-out: mortality
Description: Sunflower leaf discs were placed onto agar in a 24-well microtiter plate and sprayed with aqueous test solutions prepared from 10'000 ppm DMSO stock solutions. After drying, the leaf discs were infested with an aphid population of mixed ages. The samples were assessed for mortality 6 days after infestation.

[2] = tested on: Diabrotica balteata; assay: Diabrotica balteata (corn root worm), sprayed maize sprouts; conditions: 96 h, application rate 200 ppm, L2 larvae, 4 days after infestation, read-out: effect in at least one of the two categories (mortality or growth inhibition)
Outline: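 Maize sprouts on agar sprayed with aqueous dilutions of DMSO stocks, dried, then infested with L2 larvae (6–10 per well). Mortality and growth inhibition scored against untreated controls 4 days after infestation, at 200 ppm application rate.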

[3] = tested on: Thrips tabaci; assay: Thrips tabaci (onion thrips): feeding/contact activity; conditions: 144 h, application rate 200 ppm, Thrips population of mixed ages, 6 days after infestation, read-out: mortality
Description: Sunflower leaf discs were placed on agar in 24-well microtiter plates and sprayed with aqueous test solutions prepared from 10'000 ppm DMSO stock solutions. After drying the leaf discs were infested with a Thrips population of mixed ages. The samples were assessed for mortality 6 days after infestation.

[4] = tested on: Spodoptera littoralis; assay: Spodoptera littoralis (Egyptian cotton leaf worm), uptake by lettuce roots from agar; conditions: 144 h, read-out: effect in at least one of the three categories (mortality, anti-feeding, or growth inhibition)
Outline: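 Compound from 10'000 ppm DMSO stocks was mixed into agar, and lettuce grew on it for 7 days to take it up via roots. Cut leaves were infested with Spodoptera eggs; mortality, anti-feedant effect and growth inhibition scored 6 days later versus untreated samples.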

[5] = tested on: Spodoptera littoralis; assay: Spodoptera littoralis (Egyptian cotton leaf worm), sprayed cotton leaf discs; conditions: foliar, 72 h, application rate 200 ppm, L1 larvae, 3 days after infestation, read-out: control (mortality, anti-feeding effect, growth inhibition)
Outline: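 Cotton leaf discs on agar sprayed with aqueous test solutions made from 10'000 ppm DMSO stock; after drying, infested with five L1 larvae. Mortality, anti-feeding and growth inhibition scored versus untreated samples 3 days after infestation; control counted when any category exceeds untreated.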

[6] = tested on: Tetranychus urticae; assay: Tetranychus urticae (two-spotted spider mite): feeding/contact activity; conditions: 192 h, application rate 200 ppm, mixed population (mobile stages), 8 days after infestation, read-out: mortality
Description: Bean leaf discs on agar in 24-well microtiter plates were sprayed with aqueous test solutions prepared from 10'000 ppm DMSO stock solutions. After drying the leaf discs were infested with a mite population of mixed ages. The samples were assessed for mortality on mixed population (mobile stages) 8 days after infestation.

[7] = tested on: Plutella xylostella; assay: Plutella xylostella (diamond back moth), artificial diet; conditions: 120 h, application rate 200 ppm, L2 larvae, 5 days after infestation, read-out: effect in at least one of the two categories (mortality or growth inhibition)
Outline: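 Artificial diet in 24-well plates treated with aqueous test solutions made from 10'000 ppm DMSO stocks, dried, then infested with L2 larvae (10 to 15 per well). Mortality and growth inhibition scored against untreated samples 5 days after infestation; activity cut-off at least 80% in either category at 200 ppm.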

[8] = tested on: Euschistus heros; assay: Euschistus heros (neotropical brown stink bug), sprayed soybean leaves; conditions: 120 h, application rate 200 ppm, N2 nymphs, 5 days after infestation, read-out: effect in at least one of the two categories (mortality or growth inhibition)
Outline: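 Soybean leaves on agar sprayed with aqueous dilutions of DMSO stocks, dried, then infested with N2 nymphs. Mortality and growth inhibition scored against untreated samples 5 days after infestation; application rate 200 ppm.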

C=CCNS(=O)(=O)N1CC(NC(=O)c2ccc(C3=NO[C@@](c4cc(Cl)c(F)c(Cl)c4)(C(F)(F)F)C3)cc2C)CO1 (stereo partly shown) [Compound A105]
≥ 80%: mortality at 200 ppm [1] | percent effect (mortality or growth inhibition) at 200 ppm [2] | mortality at 200 ppm [3] | percent control (mortality, anti-feedant effect or growth inhibition) at 12.5 ppm [4] | mortality at 200 ppm [5] | mortality at 200 ppm [6] | percent effect (mortality or growth inhibition) at 200 ppm [7] | percent effect (mortality or growth inhibition) at 200 ppm [8]

CNS(=O)(=O)N1CC(NC(=O)c2ccc(C3=NO[C@@](c4cc(Cl)c(F)c(Cl)c4)(C(F)(F)F)C3)cc2C)CO1 (stereo partly shown) [Compound A70]
≥ 80%: mortality at 200 ppm [1] | percent effect (mortality or growth inhibition) at 200 ppm [2] | mortality at 200 ppm [3] | percent control (mortality, anti-feedant effect or growth inhibition) at 12.5 ppm [4] | mortality at 200 ppm [5] | mortality at 200 ppm [6] | percent effect (mortality or growth inhibition) at 200 ppm [7] | percent effect (mortality or growth inhibition) at 200 ppm [8]

Cc1cc(C2=NO[C@@](c3cc(Cl)c(F)c(Cl)c3)(C(F)(F)F)C2)ccc1C(=O)NC1CON(S(=O)(=O)CCl)C1 (stereo partly drawn) [Compound A5, N-[2-(chloromethylsulfonyl)isoxazolidin-4-yl]-4-[(5S)-5-(3,5-dichloro-4-fluoro-phenyl)-5-(trifluoromethyl)-4H-isoxazol-3-yl]-2-methyl-benzamide]
≥ 80%: mortality at 200 ppm [1] | percent effect (mortality or growth inhibition) at 200 ppm [2] | mortality at 200 ppm [3] | percent control (mortality, anti-feedant effect or growth inhibition) at 12.5 ppm [4] | mortality at 200 ppm [5] | mortality at 200 ppm [6] | percent effect (mortality or growth inhibition) at 200 ppm [7] | percent effect (mortality or growth inhibition) at 200 ppm [8]

CNS(=O)(=O)N1C[C@@H](NC(=O)c2ccc(C3=NO[C@@](c4cc(Cl)c(Cl)c(Cl)c4)(C(F)(F)F)C3)cc2C)CO1 [Compound A67, 2-methyl-N-[(4R)-2-(methylsulfamoyl)isoxazolidin-4-yl]-4-[(5S)-5-(3,4,5-trichlorophenyl)-5-(trifluoromethyl)-4H-isoxazol-3-yl]benzamide]
≥ 80%: mortality at 200 ppm [1] | percent effect (mortality or growth inhibition) at 200 ppm [2] | mortality at 200 ppm [3] | percent control (mortality, anti-feedant effect or growth inhibition) at 12.5 ppm [4] | mortality at 200 ppm [5] | mortality at 200 ppm [6] | percent effect (mortality or growth inhibition) at 200 ppm [7] | percent effect (mortality or growth inhibition) at 200 ppm [8]

Cc1cc(C2=NO[C@@](c3cc(Cl)cc(C(F)(F)F)c3)(C(F)(F)F)C2)ccc1C(=O)N[C@H]1CON(S(=O)(=O)N(C)C)C1 [Compound A91]
≥ 80%: mortality at 200 ppm [1] | percent effect (mortality or growth inhibition) at 200 ppm [2] | mortality at 200 ppm [3] | percent control (mortality, anti-feedant effect or growth inhibition) at 12.5 ppm [4] | mortality at 200 ppm [5] | mortality at 200 ppm [6] | percent effect (mortality or growth inhibition) at 200 ppm [7] | percent effect (mortality or growth inhibition) at 200 ppm [8]

CN(C)S(=O)(=O)N1C[C@@H](NC(=O)c2ccc(C3=NO[C@@](c4cc(Cl)c(F)c(Cl)c4)(C(F)(F)F)C3)cc2Cl)CO1 [Compound A107]
≥ 80%: mortality at 200 ppm [1] | percent effect (mortality or growth inhibition) at 200 ppm [2] | mortality at 200 ppm [3] | percent control (mortality, anti-feedant effect or growth inhibition) at 12.5 ppm [4] | mortality at 200 ppm [5] | mortality at 200 ppm [6] | percent effect (mortality or growth inhibition) at 200 ppm [7] | percent effect (mortality or growth inhibition) at 200 ppm [8]

Cc1cc(C2=NO[C@@](c3cc(Cl)c(F)c(Cl)c3)(C(F)(F)F)C2)ccc1C(=O)NC1CON(S(=O)(=O)N(C)C(=O)c2cccnc2)C1 (stereo partly shown) [Compound A78]
≥ 80%: mortality at 200 ppm [1] | percent effect (mortality or growth inhibition) at 200 ppm [2] | mortality at 200 ppm [3] | percent effect (mortality, anti-feeding or growth inhibition) at 12.5 ppm ([4]; test rate 12.5 ppm, eggs, 6 days after infestation) | mortality at 200 ppm [5] | mortality at 200 ppm [6] | percent effect (mortality or growth inhibition) at 200 ppm [7] | percent effect (mortality or growth inhibition) at 200 ppm [8]

Cc1cc(C2=NO[C@@](c3cc(Cl)c(F)c(Cl)c3)(C(F)(F)F)C2)ccc1C(=O)N[C@H]1CON(S(=O)(=O)N(C)C)C1 (single isomer, unassigned) [Compound A143]
≥ 80%: mortality at 200 ppm [1] | percent effect (mortality or growth inhibition) at 200 ppm [2] | mortality at 200 ppm [3] | percent control (mortality, anti-feedant effect or growth inhibition) at 12.5 ppm [4] | mortality at 200 ppm [5] | mortality at 200 ppm [6] | percent effect (mortality or growth inhibition) at 200 ppm [7] | percent effect (mortality or growth inhibition) at 200 ppm [8]

CCN(C)S(=O)(=O)N1C[C@@H](NC(=O)c2ccc(C3=NO[C@@](c4cc(Cl)c(Cl)c(Cl)c4)(C(F)(F)F)C3)cc2C)CO1 [Compound A72, N-[(4R)-2-[ethyl(methyl)sulfamoyl]isoxazolidin-4-yl]-2-methyl-4-[(5S)-5-(3,4,5-trichlorophenyl)-5-(trifluoromethyl)-4H-isoxazol-3-yl]benzamide]
≥ 80%: mortality at 200 ppm [1] | percent effect (mortality or growth inhibition) at 200 ppm [2] | mortality at 200 ppm [3] | percent control (mortality, anti-feedant effect or growth inhibition) at 12.5 ppm [4] | mortality at 200 ppm [5] | mortality at 200 ppm [6] | percent effect (mortality or growth inhibition) at 200 ppm [7] | percent effect (mortality or growth inhibition) at 200 ppm [8]

CCN(C)S(=O)(=O)N1C[C@@H](NC(=O)c2ccc(C3=NO[C@@](c4cc(Cl)c(F)c(Cl)c4)(C(F)(F)F)C3)cc2Cl)CO1 [Compound A131, 2-chloro-4-[(5S)-5-(3,5-dichloro-4-fluoro-phenyl)-5-(trifluoromethyl)-4H-isoxazol-3-yl]-N-[(4R)-2-[ethyl(methyl)sulfamoyl]isoxazolidin-4-yl]benzamide]
≥ 80%: mortality at 200 ppm [1] | percent effect (mortality or growth inhibition) at 200 ppm [2] | mortality at 200 ppm [3] | percent control (mortality, anti-feedant effect or growth inhibition) at 12.5 ppm [4] | mortality at 200 ppm [5] | mortality at 200 ppm [6] | percent effect (mortality or growth inhibition) at 200 ppm [7] | percent effect (mortality or growth inhibition) at 200 ppm [8]

Cc1cc(C2=NO[C@@](c3cc(Cl)cc(Cl)c3)(C(F)(F)F)C2)ccc1C(=O)N[C@H]1CON(S(C)(=O)=O)C1 [Compound A38]
≥ 80%: mortality at 200 ppm [1] | percent effect (mortality or growth inhibition) at 200 ppm [2] | mortality at 200 ppm [3] | percent control (mortality, anti-feedant effect or growth inhibition) at 12.5 ppm [4] | mortality at 200 ppm [5] | mortality at 200 ppm [6] | percent effect (mortality or growth inhibition) at 200 ppm [7] | percent effect (mortality or growth inhibition) at 200 ppm [8]
